Values quoted from earlier work as cited in patent publication US20100330171A1, “Dietary Supplement for Eye Health” (priority 2008, published 2010).

What was measured:
VEGFR-2 = VEGFR-2 (Homo sapiens, UniProt P35968); details: serum concentrations 0.01-1 microM
MMP-9 = MMP-9 (Homo sapiens, UniProt P14780)
[1] = system: human colon cancer cell line; details: by blocking the induction of VEGF
angiogenesis = details: chick chorioallantoic membrane assay
tube formation = details: Matigel-induced tube formation assay
bovine endothelial cells = details: in vitro, bovine endothelial cells stimulated by FGF-2
leukocyte elastase = molecular target: T1, leukocyte elastase (Homo sapiens, UniProt P08246)
T1 sequence (P08246 30-267): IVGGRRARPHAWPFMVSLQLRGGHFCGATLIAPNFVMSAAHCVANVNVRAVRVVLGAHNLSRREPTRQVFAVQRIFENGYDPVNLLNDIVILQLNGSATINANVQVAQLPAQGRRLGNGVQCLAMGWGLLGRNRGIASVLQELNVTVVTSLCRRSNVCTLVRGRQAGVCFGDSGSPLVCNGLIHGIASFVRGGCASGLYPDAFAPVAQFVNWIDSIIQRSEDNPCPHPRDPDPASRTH

[2] = compared with ascorbic acid (vitamin C) and tocopherol (vitamin E)
[3] = system: human umbilical vein endothelial cells (HUVEC)
[4] = system: phosophoinositide-dependent protein kinase, Akt, apoptosis signal-regulating kinase, p38; details: fibroblast growth factor-treated HUVEC

VEGFR-2, sequence (P35968 20-1356, species assumed): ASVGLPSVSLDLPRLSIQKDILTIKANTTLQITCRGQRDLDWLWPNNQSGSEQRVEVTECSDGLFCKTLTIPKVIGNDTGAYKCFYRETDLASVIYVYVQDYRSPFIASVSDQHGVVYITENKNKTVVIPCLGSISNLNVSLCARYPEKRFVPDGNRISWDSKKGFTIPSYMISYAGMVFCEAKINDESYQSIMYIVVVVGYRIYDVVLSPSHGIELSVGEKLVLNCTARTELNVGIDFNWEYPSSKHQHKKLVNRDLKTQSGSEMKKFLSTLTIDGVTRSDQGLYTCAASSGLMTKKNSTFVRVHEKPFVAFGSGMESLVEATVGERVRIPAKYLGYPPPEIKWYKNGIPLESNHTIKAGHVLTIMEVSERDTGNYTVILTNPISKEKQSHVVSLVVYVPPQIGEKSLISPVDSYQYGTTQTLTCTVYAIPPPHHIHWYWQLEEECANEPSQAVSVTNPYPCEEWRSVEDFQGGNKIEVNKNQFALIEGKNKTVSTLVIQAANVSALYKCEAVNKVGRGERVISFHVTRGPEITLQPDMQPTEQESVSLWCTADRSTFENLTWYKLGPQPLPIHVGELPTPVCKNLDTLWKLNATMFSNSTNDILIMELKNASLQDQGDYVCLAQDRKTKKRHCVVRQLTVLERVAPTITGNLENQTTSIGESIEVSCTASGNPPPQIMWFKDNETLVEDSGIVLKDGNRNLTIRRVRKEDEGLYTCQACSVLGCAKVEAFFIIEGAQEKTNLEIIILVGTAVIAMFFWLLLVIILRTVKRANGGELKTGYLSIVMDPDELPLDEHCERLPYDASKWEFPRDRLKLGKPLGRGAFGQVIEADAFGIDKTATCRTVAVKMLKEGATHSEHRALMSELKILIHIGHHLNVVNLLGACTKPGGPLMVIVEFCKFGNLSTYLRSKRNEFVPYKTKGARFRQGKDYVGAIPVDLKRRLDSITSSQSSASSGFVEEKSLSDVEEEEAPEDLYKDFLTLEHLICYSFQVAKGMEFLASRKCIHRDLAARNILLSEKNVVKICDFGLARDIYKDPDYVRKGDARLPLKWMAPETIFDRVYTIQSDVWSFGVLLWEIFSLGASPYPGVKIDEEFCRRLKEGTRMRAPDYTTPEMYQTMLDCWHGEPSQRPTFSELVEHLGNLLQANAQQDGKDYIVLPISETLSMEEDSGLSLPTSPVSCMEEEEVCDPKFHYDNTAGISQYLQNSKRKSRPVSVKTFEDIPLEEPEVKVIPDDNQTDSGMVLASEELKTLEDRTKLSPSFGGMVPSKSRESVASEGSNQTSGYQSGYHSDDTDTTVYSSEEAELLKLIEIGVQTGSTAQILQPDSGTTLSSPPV
MMP-9, sequence (P14780 94-707, species assumed): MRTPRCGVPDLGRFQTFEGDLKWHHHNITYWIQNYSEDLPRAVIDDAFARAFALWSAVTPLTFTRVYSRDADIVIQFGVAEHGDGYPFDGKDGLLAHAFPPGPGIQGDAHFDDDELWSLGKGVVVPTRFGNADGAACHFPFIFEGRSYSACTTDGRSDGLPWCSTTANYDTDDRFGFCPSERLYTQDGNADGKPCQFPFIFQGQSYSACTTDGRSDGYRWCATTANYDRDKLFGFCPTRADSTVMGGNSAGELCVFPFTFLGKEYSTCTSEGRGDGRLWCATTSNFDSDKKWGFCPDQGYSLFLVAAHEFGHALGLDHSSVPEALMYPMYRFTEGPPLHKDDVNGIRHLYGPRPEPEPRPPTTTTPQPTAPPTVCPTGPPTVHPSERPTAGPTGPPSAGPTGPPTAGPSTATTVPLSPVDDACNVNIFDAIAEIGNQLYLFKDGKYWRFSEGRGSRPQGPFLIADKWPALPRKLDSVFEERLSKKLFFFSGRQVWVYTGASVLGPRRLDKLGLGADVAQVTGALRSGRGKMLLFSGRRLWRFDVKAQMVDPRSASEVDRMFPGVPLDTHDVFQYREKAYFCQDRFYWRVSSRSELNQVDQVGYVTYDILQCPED

Molecule | inhibition of VEGF-dependent phosphorylation of VEGFR-2 (VEGFR-2) | gene expression of TNF-alpha and the cytokines IL-1 beta and IL-10 induced by TNF-alpha (TNF-alpha) | inhibition of MMP-9 (MMP-9) | microvessel density [1] | formation of new blood vessels (angiogenesis) | tube formation (tube formation) | endothelial cell growth (bovine endothelial cells) | inhibition of leukocyte elastase (leukocyte elastase) | quenching reactive oxygen species [2] | suppression of fibroblast growth factor-induced proliferation, migration and tube formation [3] | phosphorylation of apoptosis signal-regulating kinase and p38 [4] | phosphorylation of phosophoinositide-dependent protein kinase and Akt [4]
Epigallocatechin-3-gallate [EGCG] | inhibit | block | inhibits | reduces | block | almost completely abolished | suppress | inhibit | more effective |  |  | 
O=C(O[C@@H]1Cc2c(O)cc(O)cc2O[C@H]1c1ccc(O)c(O)c1)c1cc(O)c(O)c(O)c1 [CG, catechin-3 gallate] | inhibit |  |  |  |  | almost completely abolished |  |  |  |  |  | 
CC(C)=CCC/C(C)=C/CC/C(C)=C/CC[C@]1(C)CCc2cc(O)c(C)c(C)c2O1 [γ-tocotrienol] |  |  |  |  |  |  |  |  |  | highest activity | increasing | suppressing
